From patent EP0774258A1, “Composition containing 5-fluorouracil and d4T for use in the treatment of retroviral infection” (priority 1995, dated 1997) come the findings set out here.

The subject of data set [1] is clinical HIV-1 isolate, JEW. In words: Anti-HIV activity (p24 ELISA) in acutely infected PHA-stimulated PBMC, clinical isolate JEW. The format is cell-based. The source says: The materials and experimental procedure used to obtain the results reported in Tables 1 and 2 are described below.
Virus - A clinical HIV-1 isolate, JEW, was titrated with a infectivity assay [Johnson, V. A. and R. E. Byington. 1990. Infectivity assay, p. 71-76. in A. Aldovini and B. D. Walker (ed.), Techniques in HIV Research. Stockton Press, New York], and used in our experiments.
Chemicals - d4T was supplied by Bristol-Myers Squibb Company. 5-Fluorouracil (5-FU) was purchased from Sigma.
• 1. […] 50 µl of 4 X 10^6/ml infected PBMC were added to each well in these plates to get a final 1 X 10^6 cells/ml, and incubated at 37°C. • 4. […] This was repeated with d4T using 5-FU concentrations of 0.1 µM and 0.5 µM, respectively.
A general note: ELISA stands for enzyme-linked immunosorbent assay.

The test system of another data set is PBMC. Conditions: human.

One may read the EC50 as the concentration needed to bring the measured effect to its halfway point.

Turning to `Cc1cn([C@H]2C=C[C@@H](CO)O2)c(=O)[nH]c1=O` [d4T, 2',3'-didehydro-3'-deoxythymidine], in data set [1] (enhancement of d4T anti-HIV activity by 0.2 µM 5-FU, isolate JEW), the “Fold Enhancement” value was found to be 1 X.
For the molecule `OC[C@@H]1CC[C@H](n2cnc3c(O)ncnc32)O1` [ddI, 2',3'-dideoxyinosine], in data set [1] (Human immunodeficiency virus 1, PBMC, 168 h, 5-FU concentration 0.5 µM, PHA-stimulated PBMC, isolate JEW, p24 at day 7, mean of three experiments, read-out: EC50 (nM) of ddI), the 50% effective concentration (EC50) came to 138 ± 26 nM. The “Fold Enhancement” value in data set [1] (effect of 0.2 µM 5-FU on ddI anti-HIV activity, isolate JEW) is on record as 0.6 X; in data set [1] (effect of 0.5 µM 5-FU on ddI anti-HIV activity, isolate JEW) it was 0.7 X.
On to `O=c1[nH]cc(F)c(=O)[nH]1` [5-FU, 5-fluorouracil], for which the antiviral activity result in data set [1] (Fluorouracil alone, up to 0.5 µM, PHA-PBMC acutely infected by isolate JEW) was “no antiviral activity”. The 50% cytotoxicity concentration result in the data set on PBMC is listed as “approximately 9 µM”.
